According to patent US20020058637A1, “Methods of inhibiting tau-protein kinase I activity, inhibiting neuronal cell death and treating alzheimer's disease and tau-protein kinase I” (priority 1993, published 2002):
“Also recorded” adds a separate entry of the source.

What was measured:
hippocampus cells = experiment: Inhibiting action for the death of cranial nerve cells by AβP (living cell count, phase contrast microscope); assay type: cell-based, rat; details: for Numbers of Living Cells (%) After 6 hours / Numbers of Living Cells (%) After 21 hours: rat hippocampus cell culture, AβP 20 micromoles, oligonucleotide 1 micromole per 1 ml medium, 37° C., percentage to control
Text: Numbers of many normal and healthy cells were counted by a phase contrast microscope as an index of the living cells after the treatment. Normal cells mean those which have morphologically flat circumference and many nerve cell projections while the degenerated cells were judged by checking the irregular shape, degeneration of the neural projections, etc. Numbers of the living cells were counted in a well. In the standard culture liquid, the cell numbers were not less than 400 per well. The result was confirmed by an immunohistochemical means.
The primary culture medium of hippocampus of rats was prepared in accordance with a method described in Brain Res., 126, 397-425 (1977). Thus, the hippocampus tissues were collected from embryo of the rats of 18 days after fertilization and digested in papain (protease) (10 U/ml) at 37° C. for 20 minutes. The resulting cells were added to a Dulbecco's modified Eagle's medium supplied with 5% bovine fetus serum, 5% horse serum, 10 micrograms/ml insulin, 0.1 mg/ml transferrin, 1 microgram/ml aprotinin, 1 mM sodium pyruvate and 84 micrograms/ml gentamycin. This was planted to a well for tissue culture covered with poly-L-lysine at the density of 2×10^5 cells/cm^2, cultured for three days and treated with 1 micromole of cytosine-beta-arabinofuranoside for 24 hours and the cells of the fifth day of the culture were used.
The culture medium of the hippocampus prepared by the above-mentioned method was subjected to the following treatments (b) to (d), numbers of the living cells with an elapse of time were counted and the result is given in Table
(a) Nontreated culture medium (control):
(b) TPKI-antisense (1 micromole) was added to 1 ml of the cell culture medium and, after five minutes, 20 micromoles of AβP was added followed by keeping at 37° C. for 24 hours.
(c) AβP (20 micromoles) was added to 1 ml of the cell cuture medium followed by keeping at 37° C. for 24 hours.
(d) TPKI-sense (1 micromole) was added to 1 ml of the cell culture medium and, after five minutes, 20 micromoles of AμP was added followed by keeping at 37° C. for 24 hours.

TPK-I = experiment: Phosphorylation of tau-protein by extract of treated hippocampus cells (phosphorylating activity of TPK-I); assay type: cell-based, rat; details: 24 hours
Procedure: Hippocampus cells were collected from the culture medium by washing with an ice-cooled phosphate buffer for three times. The cells were suspended in a buffer A (pH: 6.8) which contained 1 mM EGTA, 0.5 mM magnesium acetate and 20 mM 2-(N-morpholino)-ethanesulfonic acid containing a phosphatase inhibitor ([…]; manufactured by Seikagaku Kogyo) and a protease inhibitor (1 mM phenylmethylsulfonyl fluoride and each 1 micro gram/ml of leupeptin, pepstatin and aprotinin), homogenized and centrifuged at 14,000 rpm for one hour and the supernatant liquid was used for checking the phosphorylation.
The rat tau-protein expressed in E. coli BL21 by a gene recombination was purified by a method described in J. Biol. Chem., 267, 10897-10901 (1992).
The hippocampus extract (1 microliter) was added to a solution of the rat tau-protein (400 micrograms/ml) dissolved in a buffer A containing 1 mM [τ-^32P]ATP (10-20 Ci/mmole) and then 10 micromoles of okadaic acid was added to make the final volume 10 microliters. This was incubated at 37° C. for three hours and the reaction was stopped by adding a buffer for electrophoresis. After subjecting to a 10% polyacrylamide gel electrophoresis, the ^32p in the tau-protein was observed by a laser image analyzer (Fuji BAS 2000).

tau-protein = experiment: Phosphorylation of tau-protein by recombinant human TPK-I expressed in E. coli (phosphorylating method I); assay type: biochemical, bovine; details: room temperature, 20 hours
Procedure: tau-Protein extracted from bovine brain followed by purification (2 microliters; 1.5 mg/ml concentration) and 1 microliters of the above partially-purified enzyme solution were mixed. To the mixture was added a solution containing 2 mM adenosinetriphosphate and 2 mM magnesium acetate and [gamma-32P]adenosinetriphosphate so that the phosphorylation of tau-protein was conducted at room temperature for 20 hours whereby the amount of phosphoric acid incorporated in tau-protein was evaluated.

Row | Substance | Numbers of Living Cells (%) After 6 hours (hippocampus cells) [%] | Numbers of Living Cells (%) After 21 hours (hippocampus cells) [%] | cytotoxity by AβP observed with phase contrast microscope (hippocampus cells; TPKI-antisense and AβP on hippocampus cells, after 24 hours, magnifying power 400) | phosphorylating activity of TPK-I relative to the case in which only AβP was acted (TPK-I; TPKI-antisense and AβP versus only AβP) | Phosphorylating Activity of TPKI (TPK-I; hippocampus cell supernatant, AβP 20 micromoles, TPKI-antisense 1 micromole, rat tau-protein substrate) [unit/mg protein] | phosphoric acid incorporated into one molecule of tau-protein (tau-protein) [mol]
1 | 5′-ATGTCGGGGCGACCGAGA-3′ (listed as DNA, chemistry not given here) [TPKI-Sense, tested together with AβP, reference compound] | 49.5 | 17.1 | – | – | – | –
2 | 5′-TCTCGGTCGCCCCGACAT-3′ (listed as DNA, chemistry not given here) [TPKI-Antisense, tested together with AβP] | 83.0 | 72.6 | little being similar to the controls; also recorded: little and similar to the case of the control | about one half; also recorded: about one-half | 31.6 | –
3 | partially-purified TPK-I: recombinant human-originated tau-protein kinase I (Seq. ID No. 1) expressed in E. coli BL21 (DE3), partially purified | – | – | – | – | – | 1.2
